Measurements: ChEMBL document CHEMBL1201862, “PubChem BioAssay data set” (2004)
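96-well plates; 48 h exposure; 5 concentrations. Endpoints by linear interpolation between flanking doses. Not reached: highest tested concentration assigned. Abbreviation: GI50, concentration required for 50% inhibition of growth.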 Activity calls are given as the source filed them. Cut-off read from the data, not from the text of the source: active = GI50 up to about 1.1 µM and inactive = higher.

Key:
Assay in all cases: inhibition of tumour cell growth, NCI panel, 48 h
A498 = test system: A498
PC-3 = test system: PC-3
HOP-92 = test system: HOP-92
MCF7 = test system: MCF7
SNB-75 = test system: SNB-75
RXF 393 = test system: RXF 393
HT-29 = test system: HT-29
SK-OV-3 = test system: SK-OV-3
SR = test system: SR
DU-145 = test system: DU-145
NCI-H23 = test system: NCI-H23
HL-60 = test system: HL-60
HCC 2998 = test system: HCC 2998
COLO 205 = test system: COLO 205
K562 = test system: K562
MOLT-4 = test system: MOLT-4
HCT-116 = test system: HCT-116
SK-MEL-2 = test system: SK-MEL-2

SMILES	GI50 (A498)	GI50 (PC-3)	GI50 (HOP-92)	GI50 (MCF7)	GI50 (SNB-75)	GI50 (RXF 393)	GI50 (HT-29)	GI50 (SK-OV-3)	GI50 (SR)	GI50 (DU-145)	GI50 (NCI-H23)	GI50 (HL-60)	GI50 (HCC 2998)	GI50 (COLO 205)	GI50 (K562)	GI50 (MOLT-4)	GI50 (HCT-116)	GI50 (SK-MEL-2)
CC1C2CC(C(S(=O)(=O)O)C2=O)C1(C)C (configuration not stated)	> 100 µM (inactive)	> 100 µM (inactive)	> 100 µM (inactive)	> 100 µM (inactive)	> 100 µM (inactive)	> 100 µM (inactive)	> 100 µM (inactive)	> 100 µM (inactive)	> 100 µM (inactive)	> 100 µM (inactive)	> 100 µM (inactive)	> 100 µM (inactive)	> 100 µM (inactive)	> 100 µM (inactive)	> 100 µM (inactive)	> 100 µM (inactive)	> 100 µM (inactive)	
Cc1ccccc1C(=N)c1ccccc1Cc1cccc2ccccc12	30.8 µM (inactive)	40.6 µM (inactive)	17.1 µM (inactive)	19.1 µM (inactive)		5.93 µM (inactive)	16.1 µM (inactive)	26.3 µM (inactive)	15.9 µM (inactive)	21.8 µM (inactive)	24.5 µM (inactive)	18.1 µM (inactive)	17.5 µM (inactive)	27.6 µM (inactive)	18.2 µM (inactive)	14 µM (inactive)	11.9 µM (inactive)	16.9 µM (inactive)
O=c1[nH]c(=O)n(C2OC(CO)C(O)C2O)cc1Oc1ccccc1 (configuration not stated)	> 100 µM (inactive)	> 100 µM (inactive)	> 100 µM (inactive)	> 100 µM (inactive)	> 100 µM (inactive)	> 100 µM (inactive)	> 100 µM (inactive)	> 100 µM (inactive)	> 100 µM (inactive)	> 100 µM (inactive)	> 100 µM (inactive)	> 100 µM (inactive)	> 100 µM (inactive)	> 100 µM (inactive)	> 100 µM (inactive)	> 100 µM (inactive)	> 100 µM (inactive)	> 100 µM (inactive)
COc1cc(COC(=O)N2CCCCC2C(=O)O)c([N+](=O)[O-])cc1OC (configuration not stated)	> 100 µM (inactive)	> 100 µM (inactive)	> 100 µM (inactive)	> 100 µM (inactive)	> 100 µM (inactive)	> 100 µM (inactive)	> 100 µM (inactive)	> 100 µM (inactive)	> 100 µM (inactive)	> 100 µM (inactive)	> 100 µM (inactive)	> 100 µM (inactive)	> 100 µM (inactive)	> 100 µM (inactive)	> 100 µM (inactive)	> 100 µM (inactive)	> 100 µM (inactive)	
O=C1/C(=C/c2ccco2)N=C(c2ccccc2)N1c1cc2cc(Sc3ccccc3)ccc2[nH]1	17 µM (inactive)	> 25 µM (inactive)	8.24 µM (inactive)	11 µM (inactive)	> 25 µM (inactive)	13.1 µM (inactive)	20 µM (inactive)		5.18 µM (inactive)	> 25 µM (inactive)	> 25 µM (inactive)	0.214 µM (active)		8.51 µM (inactive)	7.96 µM (inactive)	22.4 µM (inactive)	> 25 µM (inactive)	7.53 µM (inactive)
C=C[C@H]1CN2CCc3c([nH]c4c([C@H]5CCCN5C)c(O)ccc34)[C@@H]2C[C@@H]1C[C@H]1c2[nH]c3ccccc3c2CCN1C [STRYCHNOPENTAMINE]	1.63 µM (inactive)	1.57 µM (inactive)	1.58 µM (inactive)	0.776 µM (active)	1.14 µM (inactive)	1.04 µM (active)	1.3 µM (inactive)	1.77 µM (inactive)	0.425 µM (active)	1.63 µM (inactive)	1.85 µM (inactive)	0.267 µM (active)	0.388 µM (active)	1.5 µM (inactive)	0.422 µM (active)		1.33 µM (inactive)	1.9 µM (inactive)
